This note sets out measurements from ChEMBL document CHEMBL4507319 (2021).

In test [1] the target is Protein kinase C theta type (Homo sapiens) (UniProt Q04759). To be noted: Compound concentration 1000.0 nM.
The target in test [2] is Serine/threonine-protein kinase Nek7 (Homo sapiens) (UniProt Q8TDX7). The test is described as follows: NEK7(h) Eurofins kinase panel. To be noted: Compound concentration 1.0 uM.
Test [3] has as its target T1, MAP kinase-activated protein kinase 5 (Homo sapiens) (UniProt Q8IW41).
T1 sequence (whole entry): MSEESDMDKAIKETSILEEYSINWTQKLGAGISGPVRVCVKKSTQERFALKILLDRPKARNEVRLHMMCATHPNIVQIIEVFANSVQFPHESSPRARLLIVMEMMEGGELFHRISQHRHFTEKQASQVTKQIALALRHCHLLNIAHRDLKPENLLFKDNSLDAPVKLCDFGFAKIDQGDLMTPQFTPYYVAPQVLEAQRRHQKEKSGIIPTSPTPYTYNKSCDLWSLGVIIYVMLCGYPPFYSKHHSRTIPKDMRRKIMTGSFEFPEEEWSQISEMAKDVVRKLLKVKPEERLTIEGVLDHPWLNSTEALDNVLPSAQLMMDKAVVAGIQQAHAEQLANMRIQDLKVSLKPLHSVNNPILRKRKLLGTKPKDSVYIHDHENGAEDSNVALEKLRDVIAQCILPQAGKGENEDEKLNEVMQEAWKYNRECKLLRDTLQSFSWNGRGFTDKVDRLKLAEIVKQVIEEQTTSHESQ
Kind of test: PRAK(h) Eurofins kinase panel. To be noted: Compound concentration 1.0 uM.

Test [4] concerns the target Dual specificity protein kinase CLK3 (Homo sapiens) (UniProt P49761). The test is described as follows: CLK3(h) Eurofins kinase panel. The conditions noted are these: Compound concentration 1.0 uM.
Test [5] concerns the target Angiopoietin-1 receptor (Homo sapiens) (UniProt Q02763). Kind of test: Tie2 (h) Eurofins kinase panel. The conditions noted are these: Compound concentration 1.0 uM.
Test [6] has as its target Calcium/calmodulin-dependent protein kinase type II subunit delta (Homo sapiens) (UniProt Q13557). The test is described as follows: CaMKIIdelta(h) Eurofins kinase panel. To be noted: Compound concentration 1.0 uM.
Test [7] concerns the target Casein kinase II subunit alpha' (Homo sapiens) (UniProt P19784). The test is described as follows: CK2alpha2(h) Eurofins kinase panel. The conditions noted are these: Compound concentration 1.0 uM.
Test [8] deals with T2, Serine/threonine-protein kinase 17A (Homo sapiens) (UniProt Q9UEE5).
T2 sequence (whole entry): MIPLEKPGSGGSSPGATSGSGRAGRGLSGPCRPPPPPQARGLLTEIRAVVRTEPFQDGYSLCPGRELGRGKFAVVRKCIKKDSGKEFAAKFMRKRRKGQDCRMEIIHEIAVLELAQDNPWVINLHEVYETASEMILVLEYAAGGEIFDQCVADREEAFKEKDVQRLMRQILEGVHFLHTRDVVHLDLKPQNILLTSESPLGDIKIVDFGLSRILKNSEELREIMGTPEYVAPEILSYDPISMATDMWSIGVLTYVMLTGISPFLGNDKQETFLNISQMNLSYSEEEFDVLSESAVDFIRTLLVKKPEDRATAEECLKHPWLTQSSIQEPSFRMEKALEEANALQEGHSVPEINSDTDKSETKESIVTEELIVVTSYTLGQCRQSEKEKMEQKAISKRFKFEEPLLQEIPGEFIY
Kind of test: DRAK1(h) Eurofins kinase panel. To be noted: Compound concentration 1.0 uM.

Test [9] concerns the target T3, Mitogen-activated protein kinase 13 (Homo sapiens) (UniProt O15264).
T3 sequence (whole entry): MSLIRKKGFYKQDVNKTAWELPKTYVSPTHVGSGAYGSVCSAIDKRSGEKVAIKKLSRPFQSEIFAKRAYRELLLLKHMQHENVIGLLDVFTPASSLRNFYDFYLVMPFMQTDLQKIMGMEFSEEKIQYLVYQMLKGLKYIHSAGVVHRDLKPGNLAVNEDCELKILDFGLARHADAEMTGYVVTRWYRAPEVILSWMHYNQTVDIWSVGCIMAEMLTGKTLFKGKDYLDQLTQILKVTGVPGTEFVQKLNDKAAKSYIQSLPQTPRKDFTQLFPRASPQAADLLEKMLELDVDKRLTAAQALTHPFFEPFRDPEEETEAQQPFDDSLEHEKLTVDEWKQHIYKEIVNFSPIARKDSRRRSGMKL
Kind of test: SAPK4(h) Eurofins kinase panel. The conditions noted are these: Compound concentration 1.0 uM.

Test [10] has as its system IMR-5/75. The test is described as follows: IMR-5/75 cell line Proliferation assay. The conditions noted are these: time 6 day. Format: functional, Homo sapiens.
Test [11] concerns the target T4, Dual specificity mitogen-activated protein kinase kinase 7 (Homo sapiens) (UniProt O14733).
T4 sequence (whole entry): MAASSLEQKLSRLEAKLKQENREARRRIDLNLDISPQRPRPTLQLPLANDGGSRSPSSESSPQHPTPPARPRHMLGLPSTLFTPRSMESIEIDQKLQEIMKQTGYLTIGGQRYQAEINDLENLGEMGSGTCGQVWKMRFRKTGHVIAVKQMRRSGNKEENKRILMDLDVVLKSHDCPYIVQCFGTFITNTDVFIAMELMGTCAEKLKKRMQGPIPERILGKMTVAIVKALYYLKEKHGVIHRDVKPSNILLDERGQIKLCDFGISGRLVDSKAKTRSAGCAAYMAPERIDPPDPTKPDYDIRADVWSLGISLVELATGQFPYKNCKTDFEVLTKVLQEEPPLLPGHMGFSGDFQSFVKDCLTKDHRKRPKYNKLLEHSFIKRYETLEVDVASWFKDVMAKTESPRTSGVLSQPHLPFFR
Kind of test: MKK7beta(h) Eurofins kinase panel. The conditions noted are these: Compound concentration 1.0 uM.

The target of test [12] is RAF proto-oncogene serine/threonine-protein kinase (Homo sapiens) (UniProt P04049). Kind of test: c-RAF(h) Eurofins kinase panel. To be noted: Compound concentration 1.0 uM.
Sequence of RAF proto-oncogene serine/threonine-protein kinase (Homo sapiens) (P04049 whole entry): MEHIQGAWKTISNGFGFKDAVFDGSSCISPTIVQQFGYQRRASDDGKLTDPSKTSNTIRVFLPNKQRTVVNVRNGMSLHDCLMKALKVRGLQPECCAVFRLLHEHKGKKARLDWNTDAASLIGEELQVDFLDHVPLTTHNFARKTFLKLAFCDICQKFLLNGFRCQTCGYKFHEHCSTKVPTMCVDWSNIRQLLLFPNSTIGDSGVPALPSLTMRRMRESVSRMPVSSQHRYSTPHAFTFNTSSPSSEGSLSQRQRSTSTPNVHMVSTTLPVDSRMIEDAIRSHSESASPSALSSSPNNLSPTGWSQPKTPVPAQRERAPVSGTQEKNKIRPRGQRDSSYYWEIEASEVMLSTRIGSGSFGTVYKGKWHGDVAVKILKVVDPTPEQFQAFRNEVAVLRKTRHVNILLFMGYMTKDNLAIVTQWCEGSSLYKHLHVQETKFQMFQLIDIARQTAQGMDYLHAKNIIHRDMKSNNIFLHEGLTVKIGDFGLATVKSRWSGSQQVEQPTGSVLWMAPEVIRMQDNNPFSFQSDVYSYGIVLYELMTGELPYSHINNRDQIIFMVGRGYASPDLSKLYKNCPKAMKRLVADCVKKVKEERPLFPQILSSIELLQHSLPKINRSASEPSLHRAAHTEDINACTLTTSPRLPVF
In test [13] the target is Tyrosine-protein kinase ABL2 (Homo sapiens) (UniProt P42684). Kind of test: Arg(h) Eurofins kinase panel. To be noted: Compound concentration 1.0 uM.
The target of test [14] is Ribosomal protein S6 kinase alpha-1 (Homo sapiens, UniProt Q15418).
In test [15] the target is Serine/threonine-protein kinase PAK 2 (Homo sapiens) (UniProt Q13177). The test is described as follows: PAK2(h) Eurofins kinase panel. To be noted: Compound concentration 1.0 uM.
Sequence of Serine/threonine-protein kinase PAK 2 (Homo sapiens) (Q13177 whole entry): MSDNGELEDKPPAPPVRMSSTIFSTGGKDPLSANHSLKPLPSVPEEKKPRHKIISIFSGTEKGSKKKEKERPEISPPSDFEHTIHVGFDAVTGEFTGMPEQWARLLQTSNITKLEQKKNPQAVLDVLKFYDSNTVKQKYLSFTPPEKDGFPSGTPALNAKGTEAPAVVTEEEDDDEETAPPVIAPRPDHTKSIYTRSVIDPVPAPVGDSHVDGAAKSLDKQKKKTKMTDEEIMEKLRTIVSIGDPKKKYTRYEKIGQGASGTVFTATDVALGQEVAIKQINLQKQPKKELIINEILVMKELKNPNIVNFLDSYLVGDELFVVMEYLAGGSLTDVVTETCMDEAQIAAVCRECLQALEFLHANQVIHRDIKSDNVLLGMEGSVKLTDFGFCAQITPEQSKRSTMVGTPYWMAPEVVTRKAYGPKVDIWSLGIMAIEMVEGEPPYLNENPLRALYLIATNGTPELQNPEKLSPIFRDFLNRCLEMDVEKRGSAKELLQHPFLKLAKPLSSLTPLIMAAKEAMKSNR
Test [16] concerns the target Interferon-induced, double-stranded RNA-activated protein kinase (Homo sapiens) (UniProt P19525). Kind of test: PKR(h) Eurofins kinase panel. To be noted: Compound concentration 1.0 uM.
Test [17] addresses Dual specificity protein kinase CLK4 (Homo sapiens) (UniProt Q9HAZ1). The test is described as follows: CLK4(h) Eurofins kinase panel. To be noted: Compound concentration 1.0 uM.
Test [18] deals with Serine/threonine-protein kinase PAK 5 (Homo sapiens) (UniProt Q9P286). Kind of test: PAK5(h) Eurofins kinase panel. The conditions noted are these: Compound concentration 1.0 uM.
Sequence of Serine/threonine-protein kinase PAK 5 (Homo sapiens) (Q9P286 whole entry, looked up): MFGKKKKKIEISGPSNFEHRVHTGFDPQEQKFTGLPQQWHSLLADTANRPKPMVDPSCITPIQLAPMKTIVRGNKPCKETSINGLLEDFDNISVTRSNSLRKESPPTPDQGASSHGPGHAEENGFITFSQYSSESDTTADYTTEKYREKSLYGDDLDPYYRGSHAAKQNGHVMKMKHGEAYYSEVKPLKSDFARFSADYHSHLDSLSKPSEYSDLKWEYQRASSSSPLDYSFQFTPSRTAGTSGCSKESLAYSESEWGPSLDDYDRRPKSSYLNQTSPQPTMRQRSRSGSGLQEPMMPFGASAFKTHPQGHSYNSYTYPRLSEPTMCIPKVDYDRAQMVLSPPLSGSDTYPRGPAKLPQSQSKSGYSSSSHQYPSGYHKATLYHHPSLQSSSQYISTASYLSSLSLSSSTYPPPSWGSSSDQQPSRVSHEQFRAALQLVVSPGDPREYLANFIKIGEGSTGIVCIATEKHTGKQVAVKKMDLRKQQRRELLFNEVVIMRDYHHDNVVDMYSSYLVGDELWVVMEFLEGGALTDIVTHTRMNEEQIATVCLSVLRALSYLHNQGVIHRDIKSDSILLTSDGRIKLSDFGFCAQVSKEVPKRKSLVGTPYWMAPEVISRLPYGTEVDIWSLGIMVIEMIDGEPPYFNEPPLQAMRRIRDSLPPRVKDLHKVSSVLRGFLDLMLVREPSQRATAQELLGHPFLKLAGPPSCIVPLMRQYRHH
The target in test [19] is Epidermal growth factor receptor (Homo sapiens) (UniProt P00533). The test is described as follows: EGFR(h) Eurofins kinase panel. The conditions noted are these: Compound concentration 1.0 uM.
Sequence of Epidermal growth factor receptor (Homo sapiens) (P00533 whole entry): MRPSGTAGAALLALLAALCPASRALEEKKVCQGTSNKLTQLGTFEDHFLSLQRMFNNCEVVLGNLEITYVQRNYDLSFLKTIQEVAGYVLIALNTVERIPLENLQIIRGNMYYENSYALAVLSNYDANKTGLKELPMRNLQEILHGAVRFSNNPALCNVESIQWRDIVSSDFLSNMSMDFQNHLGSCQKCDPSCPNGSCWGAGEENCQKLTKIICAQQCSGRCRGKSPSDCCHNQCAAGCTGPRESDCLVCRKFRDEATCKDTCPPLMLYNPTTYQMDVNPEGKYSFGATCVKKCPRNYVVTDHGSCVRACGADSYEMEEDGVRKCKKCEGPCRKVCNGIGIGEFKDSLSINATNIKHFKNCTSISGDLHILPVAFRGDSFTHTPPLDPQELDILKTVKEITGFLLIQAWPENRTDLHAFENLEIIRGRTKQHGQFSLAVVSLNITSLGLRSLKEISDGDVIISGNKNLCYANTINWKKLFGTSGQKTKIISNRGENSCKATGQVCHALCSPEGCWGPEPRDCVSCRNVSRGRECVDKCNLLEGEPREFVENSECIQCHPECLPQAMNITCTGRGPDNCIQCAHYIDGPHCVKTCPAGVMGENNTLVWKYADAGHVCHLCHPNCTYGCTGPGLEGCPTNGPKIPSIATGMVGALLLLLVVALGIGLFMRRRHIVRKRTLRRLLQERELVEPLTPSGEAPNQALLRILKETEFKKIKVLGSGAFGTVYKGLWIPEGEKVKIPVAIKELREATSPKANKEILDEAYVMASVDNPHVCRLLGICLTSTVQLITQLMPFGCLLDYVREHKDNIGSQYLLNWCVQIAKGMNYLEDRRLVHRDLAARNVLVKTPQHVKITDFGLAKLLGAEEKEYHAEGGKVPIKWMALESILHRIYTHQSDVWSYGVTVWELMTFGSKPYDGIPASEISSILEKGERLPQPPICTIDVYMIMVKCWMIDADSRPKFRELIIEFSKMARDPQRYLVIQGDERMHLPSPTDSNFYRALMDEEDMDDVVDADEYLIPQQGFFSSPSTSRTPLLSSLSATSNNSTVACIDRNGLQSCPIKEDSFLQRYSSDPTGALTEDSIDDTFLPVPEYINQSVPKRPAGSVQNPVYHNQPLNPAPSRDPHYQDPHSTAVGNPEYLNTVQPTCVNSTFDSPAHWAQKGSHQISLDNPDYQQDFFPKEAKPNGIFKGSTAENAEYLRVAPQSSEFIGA
The target in test [20] is Serine/threonine-protein kinase N2 (Homo sapiens) (UniProt Q16513). Kind of test: PRK2(h) Eurofins kinase panel. The conditions noted are these: Compound concentration 1.0 uM.
Sequence of Serine/threonine-protein kinase N2 (Homo sapiens) (Q16513 whole entry, looked up): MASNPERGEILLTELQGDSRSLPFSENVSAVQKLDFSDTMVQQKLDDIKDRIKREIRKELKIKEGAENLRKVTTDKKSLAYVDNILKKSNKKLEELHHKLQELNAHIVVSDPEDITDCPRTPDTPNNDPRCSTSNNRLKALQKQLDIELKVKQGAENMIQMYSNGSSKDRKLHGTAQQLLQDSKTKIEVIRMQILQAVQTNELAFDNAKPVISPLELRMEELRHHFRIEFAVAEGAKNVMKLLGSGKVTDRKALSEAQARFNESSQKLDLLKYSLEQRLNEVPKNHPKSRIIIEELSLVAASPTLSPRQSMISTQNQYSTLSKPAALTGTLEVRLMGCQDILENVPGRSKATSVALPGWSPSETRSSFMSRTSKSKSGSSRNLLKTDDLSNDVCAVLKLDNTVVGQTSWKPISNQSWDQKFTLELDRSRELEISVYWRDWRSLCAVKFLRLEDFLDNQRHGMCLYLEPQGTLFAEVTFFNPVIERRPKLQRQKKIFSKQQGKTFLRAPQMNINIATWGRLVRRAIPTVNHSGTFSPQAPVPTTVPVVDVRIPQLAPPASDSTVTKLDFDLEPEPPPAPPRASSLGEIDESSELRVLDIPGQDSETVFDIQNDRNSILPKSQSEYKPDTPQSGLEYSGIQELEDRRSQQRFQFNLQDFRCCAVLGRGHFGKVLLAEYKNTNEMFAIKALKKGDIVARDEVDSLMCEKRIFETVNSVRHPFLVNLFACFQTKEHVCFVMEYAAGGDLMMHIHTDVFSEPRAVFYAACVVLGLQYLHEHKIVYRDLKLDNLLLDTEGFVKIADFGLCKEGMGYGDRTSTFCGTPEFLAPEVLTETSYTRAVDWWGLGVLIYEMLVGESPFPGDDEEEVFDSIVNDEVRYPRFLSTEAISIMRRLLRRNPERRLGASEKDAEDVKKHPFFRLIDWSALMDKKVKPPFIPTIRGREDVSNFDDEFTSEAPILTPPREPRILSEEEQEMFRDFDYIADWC
For test [21], the system named is A549. The test is described as follows: A549 cell line Proliferation assay. Format: functional, Homo sapiens. To be noted: time 3 day.

The residual activity is the activity still measured, relative to the control. For orientation: IC50 means the concentration that inhibits the measured activity by half.

Sequence of Casein kinase II subunit alpha' (Homo sapiens) (P19784 whole entry, looked up): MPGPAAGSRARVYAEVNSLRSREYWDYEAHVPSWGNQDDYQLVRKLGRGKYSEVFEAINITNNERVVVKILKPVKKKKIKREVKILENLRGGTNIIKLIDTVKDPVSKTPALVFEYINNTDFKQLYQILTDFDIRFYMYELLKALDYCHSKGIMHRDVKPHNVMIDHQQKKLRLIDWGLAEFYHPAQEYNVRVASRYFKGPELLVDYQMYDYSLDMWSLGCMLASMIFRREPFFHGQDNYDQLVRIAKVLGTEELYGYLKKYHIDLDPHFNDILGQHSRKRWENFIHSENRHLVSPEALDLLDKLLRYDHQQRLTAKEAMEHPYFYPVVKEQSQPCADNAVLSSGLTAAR
Sequence of Dual specificity protein kinase CLK3 (Homo sapiens) (P49761 whole entry, looked up): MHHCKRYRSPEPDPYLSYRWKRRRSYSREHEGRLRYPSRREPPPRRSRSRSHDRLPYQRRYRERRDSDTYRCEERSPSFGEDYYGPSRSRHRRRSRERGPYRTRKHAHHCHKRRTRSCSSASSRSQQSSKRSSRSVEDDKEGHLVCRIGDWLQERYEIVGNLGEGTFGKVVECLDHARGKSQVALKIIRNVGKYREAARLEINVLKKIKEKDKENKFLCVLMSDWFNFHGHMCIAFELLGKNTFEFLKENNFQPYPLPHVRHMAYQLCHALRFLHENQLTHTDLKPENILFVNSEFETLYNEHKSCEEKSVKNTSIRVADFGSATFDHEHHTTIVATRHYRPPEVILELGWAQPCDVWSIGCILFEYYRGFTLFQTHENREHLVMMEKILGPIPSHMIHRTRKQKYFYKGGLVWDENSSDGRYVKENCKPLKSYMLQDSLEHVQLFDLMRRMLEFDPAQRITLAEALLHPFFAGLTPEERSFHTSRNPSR

In the case of `CC1=C(C#N)C(c2ccc3c(c2)c(NC(=O)c2ccccc2C)nn3C)C(C#N)=C(C)N1` [BAY-974], the residual activity in [1] was 55%.
Turning to `CCc1ccccc1C(=O)Nc1n[nH]c2c(C)c(F)c(C3C(C#N)=C(C)N(C)C(C)=C3C#N)cc12` [BAY-3827], the % residual kinase activity in test [2] was 112%; in test [3], 87%; in [4], 109%; in test [5], 81%; in test [6], 75%; in test [7], 109%. For the same molecule, the % residual kinase activity was 119% in [8]; 111% in [9]; 103% in test [11]; 99% in test [12]; 101% in test [13]; 105% in test [15]. The % residual kinase activity in [16] is 96%; in test [17], 104%; in test [18], 86%; in [19], 107%; in test [20], 93%. Further, the “Cell Proliferation IC50” value in test [10] amounted to 21.3 µM; in test [21] it was 25.8 µM. Moreover, in test [14], the IC50 was 0.009 µM.
